Reference: patent publication US8143025B2, “Antibodies against vascular endothelial growth factor receptor-1” (ImClone LLC, priority 2004, dated 2012)

Tested on: DU4475 xenograft
Experiment: DU4475 breast tumor xenograft
Format: in vivo, mouse
Description: Athymic nude mice (Charles River Laboratories, Wilmington, Mass.) were injected subcutaneously in the left flank area with 2×10^6 of DU4475 cells or 5×10^6 of MDA-MB-231 and MDA-MB-435 cells mixed in Matrigel (Collaborative Research Biochemicals. Bedford, Mass.). In the DU4475 and MDA-MB-231 models, tumors were allowed to reach approximately 200 mm^3 in size and then mice were randomized into groups of 12-16 animals per group. Animals received i.p. administration of the anti-VEGFR-I antibody clones 6F9, 15F11, or 18F1 at a dose of 0.5 mg (MDA-MB-231) or 1 mg (DU4475) three times each week. In the MDA-MB-435 model, the tumor cells were implanted subcutaneously into mammary fat pad area in the mouse. After tumors grew to reach approximately 200 mm^3 in size, mice were randomized into groups of 15 animals per group and intraperitoneally administered with 0.5 mg per dose of 18F1 antibody three times each week. Mice in control groups received an equal volume of saline solution. Treatment of animals was continued for the duration of the experiment. Tumors were measured twice each week with calipers. Tumor volumes were calculated using the formula [π/6 (w1×w2×w2)], where “w1” represents the largest tumor diameter and “w2” represents the smallest tumor diameter. Female athymic nu/nu mice, 6-8 weeks of age, were injected subcutaneously on the lateral dorsal surface with 0.4 mL volume of a suspension containing a human tumor cell line in media, diluted 1:1 with MATRIGEL™ (BD Biosciences). The cell lines used in xenograft models, with the cell doses indicated in parenthesis (10^6 cells/mouse), were: human colon carcinoma cell lines DLD-I (5), GEO (5) and HT-29 (5); human breast carcinoma cell lines DU4475 (2), MDA-MB-231 (5), MDA-MB-435 (5), and BT474 (5). When tumors reached approximately 200-300 mm^3, mice were randomized by tumor size and divided into treatment groups. Tumor growth was evaluated approximately twice weekly, with tumor volume calculated as π/6* (Length*Width^2), where Length=longest diameter and Width=diameter perpendicular to Length. Tumor dimensions were measured with calipers. T/C % was calculated as 100*(Final Treatment Tumor Volume/Initial Treatment Tumor Volume)/(Final Control Tumor Volume/Initial Control Tumor Volume). 18F1 was diluted in 0.9% USP saline (Braun) or phosphate buffered saline (PBS) and administered intraperitoneally in a volume of 0.5 mL per mouse. The effect of treatment on tumor growth was analyzed using repeated measures analysis of variance (RM ANOVA), p<0.05 was considered significant. 18F1 was used in combination with an antibody to mouse VEGFR-I, MF1. […] AU treatments were administered i.p. The effect of treatments on tumor growth were analyzed using repeated measures analysis of variance (RM ANOVA), p<0.05 was considered significant.

18F1: human anti-VEGFR-1 monoclonal antibody clone; VL SEQ ID NO: 16, VH SEQ ID NO: 20 [Clone 18F1]
tumor growth of the DU4475 xenograft (1 mg per dose three times each week i.p., p<0.05, FIGS. 19A-B): statistically significant suppression
tumor growth of the DU4475 xenograft (0.5 or 1 mg per dose three times each week, ANOVA p<0.05, FIG. 20A): statistically significant suppression
growth of DU4475 xenograft tumors (Example 9, intraperitoneal, p<0.05, FIG. 25A): significantly (p<0.05) suppressed
tumor growth inhibition, DU4475 xenograft (Example 11, p<0.05, FIG. 28B): significant tumor growth inhibition
